Like-named read-outs stand apart in the source and are kept apart here.
What was measured:
AML cell lines [1] = test: Methylscan proteomic evaluation of arginine methylation; type: cell-based; settings: AML cell lines treated with the tool compound vs DMSO
Excerpt: FIG. 3: Methylscan evaluation of cell lines treated with Compound D. Percent of proteins with methylation changes (independent of directionality of change) are categorized by functional group as indicated.
To identify putative PRMT1 substrates, a proteomic approach (Methylscan, Cell Signaling Technology) was utilized to identify proteins with changes in arginine methylation states in response to a tool PRMT1 inhibitor, Compound D. Protein fragments from Compound D- and DSMO-treated cell extracts were immunoprecipitated using methyl arginine specific antibodies (ADMA, MMA, SDMA), and peptides were identified by mass spectrometry.

lymphoma cell lines [2] = test: 6-day growth-death assay (Cell Titer Glo); type: cell-based, human; settings: Hodgkin's and non-Hodgkin's subtypes
Protocol: (§4) The growth of all cell lines was evaluated over time across a wide range of seeding densities to identify conditions that permitted proliferation throughout the entire 6-day assay. Cells were plated at the optimal seeding density and after overnight incubation, a 20-point 2-fold titration of compound was added and plates were incubated for 6 days. A replicate plate of cells was harvested at the time of compound addition to quantify the starting number of cells (T0). Values obtained after the 6 day treatment were expressed as a function of the T0 value and plotted against compound concentration. The T0 value was normalized to 100% and represents the number of cells at the time of compound addition. The data were fit with a 4 parameter equation to generate a concentration response curve and the growth IC50 (gIC50) was determined. The gIC50 is the midpoint of the ‘growth window’, the difference between the number of cells at the time of compound addition (T0) and the number of cells after 6 days (DMSO control). The growth-death assay can be used to quantify the net population change, clearly defining cell death (cytotoxicity) as fewer cells compared to the number at the time of compound addition (T0).

Toledo DLBCL cells = test: western analysis of arginine methylation, timecourse; type: cell-based, human; settings: 0.4 uM
Protocol: (B) Representative western blots of arginine methylation marks. Regions quantified are denoted by black bars on the right of the gel.
As predicted, ADMA methylation decreased while MMA increased upon compound exposure (FIG. 12). […] Given the detection of numerous substrates with varying kinetics, and variability of ADMA levels among DMSO-treated samples, both the full lane and a prominent 45 kDa band were characterized to assess ADMA. Increases in MMA were apparent by 24 hours and near maximal by 48 hours while decreases in the 45 kDa ADMA band required 72-96 hours to achieve maximal effect. Increases in SDMA were apparent after 48 hours of compound exposure and continued to increase through 120 hours, consistent with the potential switch from conversion of MMA to ADMA by Type I PRMTs to SDMA by Type II PRMTs (FIG. 12).

AML cell lines [3] = test: 6-day growth-death assay (Cell Titer Glo); type: cell-based, human; settings: 10 cell lines
Protocol: as §4

[4] = system: panel of lymphoma cell lines; test: western dose response of arginine methylation; type: cell-based, human; settings: all lymphoma cell lines evaluated; 72 hours
Excerpt: Regions quantified for (B) are denoted by black bars to the left of gels. […] Corresponding gIC50 values in 6-day growth death assay are as indicated in red.

[5] = rat, at 14-day MTD […] mg/kg
OCI-Ly1 = system: OCI-Ly1
Protocol: (§1) FIG. 18: Propidium iodide FACS analysis of cell cycle in human lymphoma cell lines. […] Data represents the average±SEM of biological replicates, n=2.
(§2) By day 7, an increase in the sub-G1 population was apparent at concentrations ≥100 nM.

U2932 = system: U2932
Protocol: as §1, §2

[6] = dog, at 21-day MTD […] mg/kg
kidney cancer cell lines = test: 6-day growth-death assay (Cell Titer Glo); type: cell-based, human; settings: renal cell carcinoma lines tested
Protocol: as §4

AML cell lines [7] = test: 6 and 10 day proliferation assays; type: cell-based, human; settings: day 10 vs day 6
Excerpt: (§3) (B) Ymin-T0 at 6 day (light blue) and 10 day (dark blue) with corresponding gIC100 (red points).

lymphoma cell lines [8] = test: 6 and 10 day proliferation assays; type: cell-based, human; settings: day 10 vs day 6
Excerpt: as §3

| SMILES | proteins with changes in arginine methylation states (ADMA, MMA, SDMA) (AML cell lines [1]) | sensitivity by lymphoma subtype (lymphoma cell lines [2]) | time to maximal decrease of the 45 kDa ADMA band (Toledo DLBCL cells) [h] | change of ADMA methylation (Toledo DLBCL cells; up to 120 hours) | change of MMA (Toledo DLBCL cells; up to 120 hours) | change of SDMA (Toledo DLBCL cells; up to 120 hours) | number of cell lines in which cytotoxicity was induced (AML cell lines [3]) [cell lines] | 45 kDa ADMA band [4] | Cave (total AUC or exposure) [5] [nM] | concentration at which sub-G1 effect was evident (OCI-Ly1) [µM] | concentration at which sub-G1 effect was evident (U2932) [µM] | Cave (total AUC or exposure) [6] [nM] | cytotoxic response (kidney cancer cell lines) | effect of extended exposure on potency (gIC50) or cytotoxicity (Ymin-T0) (AML cell lines [7]) | effect of extended exposure on potency (gIC50) or cytotoxicity (Ymin-T0) (lymphoma cell lines [8]) |
| --- | --- | --- | --- | --- | --- | --- | --- | --- | --- | --- | --- | --- | --- | --- | --- |
| CNCCN(C)Cc1c[nH]nc1[C@H]1CC[C@@]2(CC1)CC(C)(C)CO2 [Compound D] | the majority of substrates identified were transcriptional regulators and RNA processing proteins |  |  |  |  |  |  |  |  |  |  |  |  |  |  |
| CCOCC1(COCC)CCC(c2n[nH]cc2CN(C)CCNC)CC1 [Compound A] |  | equally sensitive | 72 to 96 | decreased | increased | increase | 5 | decreased to undetectable levels | 2100 | 10 | 10 | 3200 | none of the lines tested showed a cytotoxic response | minimal effects | minimal effects |
